# Experimental data as given in patent US20220409649A1, “a-GLUCOSIDASE INHIBITOR, INVERTASE INHIBITOR, AND SUGAR ABSORPTION INHIBITOR” (Kinki University, priority 2019, published 2022).
# Columns and labels:
# invertase = invertase (Saccharomyces cerevisiae, UniProt P00724); assay: Invertase inhibition analysis by compound (I); assay type: biochemical
# Description: For invertase inhibition analysis, 100 μg of sucrose as a substrate and 1 μg, 10 μg, or 100 μg of the compound (I) being the invertase inhibitor were added to 50 μL of 100 mmol/L acetate buffer solution, and pre-incubation was performed at 37° C. for five minutes. Thereafter, 50 μL of 0.2 U/mL invertase solution was added, and incubation was performed for 15 minutes. Thereafter, 10 μL of the reaction mixture was heated in a water bath to inactivate the enzyme and evaporated and dried, and the PMP derivatization was performed. A substance subjected to the enzyme reaction under the same conditions without adding the inhibitor was used as a blank. In each sample, the concentration required for the compound (I) to inhibit 50% of the enzyme was defined as IC50. An inhibition rate by the compound (I) was calculated using a following equation.
# Inhibition rate (%)=[D1−(D2−D3)/1]×100 (Equation 1)
# D1: Peak area of glucose in blank sample
# D2: Peak area of glucose in each sample after enzyme reaction
# D3: Peak area of glucose contained in inhibitor as an impurity
# The IC50 value was calculated from a dose-response curve of the compound (I) used as the inhibitor.
# [1] = Oral glucose tolerance testing using sucrose, OLETF rats with diabetes; assay type: in vivo; details: oral co-administration with sucrose, FIG. 8
# Description: (§1) Glucose tolerance testing of normal Wistar type rats and OLETF rats with diabetes was performed using the compound (I). After fasted for 14 hours, glucose was loaded, and blood taken from tail veins of the rats was subjected to various tests.
# (§2) An aqueous solution containing […] of sucrose (hereinafter, also referred to as “A Liquid”) and an aqueous solution containing […] of sucrose and 0.085 mg/ml of the compound (I) (hereinafter, also referred to as “B Liquid”) were prepared. Six normal 7-week-old rats (male) were divided into two groups. In one group, the A liquid was orally administered such that an amount of sucrose was 1.5 g/kg based on the rat body weight. In the other group, the B liquid was orally administered such that the amount of sucrose was 1.5 g/kg based on the rat body weight. Blood was taken from the tail veins of the rats before the administration and in 30 minutes, 60 minutes, 90 minutes, and 120 minutes after the administration, and then plasma was obtained by centrifugation. For the obtained plasma, glucose and insulin were quantified.
# [2] = target: T1, sucrase (sucrose as substrate) (Rattus norvegicus, UniProt P23739); assay: Screening of enzyme inhibition, rat intestinal acetone powder crude enzyme, sucrose as substrate; assay type: biochemical; details: 10 μL inhibitor solution (3.4 mg/mL diluted 100 times), five hours
# T1 construct: the supernatant was used as a purified enzyme; from tissue; host or cells: rat intestine (acetone powder, supernatant of homogenate)
# Description: (§3) As a crude enzyme mixture, 50 mg of rat intestinal acetone powder was added to 450 μL of 50 mmol/L phosphate buffer solution (pH 6.0), the mixture was stirred for 30 seconds, and then homogenized. Thereafter, the mixture was centrifuged (10000 rpm, 4° C., 20 minutes), and the supernatant was used as a purified enzyme (50 mg/450 μL). Sucrose and two types of glucose disaccharides (maltose and isomaltose) having different bonds were used as substrates. 3.4 mg of each of the two types of substrates was dissolved in 100 μL of phosphate buffer solution, and each solution was used as a substrate solution. A solution obtained by dissolving 3.4 mg of the compound (I) as a competitive inhibitor in 1 mL of phosphate buffer solution and diluting 100 times, was used as an inhibitor solution. 100 μL of the substrate solution and 10 μL of the inhibitor solution were mixed, and pre-incubation was performed for five minutes. Then, 90 μL of an enzyme solution was added to start incubation. Five hours later, 10 μL of the reaction solution was heated in a water bath for 10 minutes to stop the reaction, followed by the PMP derivatization, and then the capillary electrophoresis. An enzyme reaction solution under the same conditions without the inhibitor was used as a blank. The inhibition rate was calculated for each substrate using the same equation as that in the invertase inhibition analysis.
# [3] = tested on: Maltase α-(1-4)glucosidase; assay: Maltase inhibition analysis by compound (I) (Table 2); assay type: biochemical
# [4] = target: T2, isomaltase (isomaltose as substrate) (Rattus norvegicus, UniProt P23739); assay: Screening of enzyme inhibition, rat intestinal acetone powder crude enzyme, isomaltose as substrate; assay type: biochemical; details: 10 μL inhibitor solution (3.4 mg/mL diluted 100 times), five hours
# T2 construct: the supernatant was used as a purified enzyme; from tissue; host or cells: rat intestine (acetone powder, supernatant of homogenate)
# Description: as §3
# [5] = tested on: maltase (maltose as substrate); assay: Screening of enzyme inhibition, rat intestinal acetone powder crude enzyme, maltose as substrate; assay type: biochemical; details: 10 μL inhibitor solution (3.4 mg/mL diluted 100 times), five hours
# Description: as §3
# [6] = Oral glucose tolerance testing using sucrose, normal rats; assay type: in vivo, normal Wistar type rats; details: oral co-administration with sucrose 1.5 g/kg, FIG. 7
# Description: as §1, §2
# Chain of invertase (P00724 20-532): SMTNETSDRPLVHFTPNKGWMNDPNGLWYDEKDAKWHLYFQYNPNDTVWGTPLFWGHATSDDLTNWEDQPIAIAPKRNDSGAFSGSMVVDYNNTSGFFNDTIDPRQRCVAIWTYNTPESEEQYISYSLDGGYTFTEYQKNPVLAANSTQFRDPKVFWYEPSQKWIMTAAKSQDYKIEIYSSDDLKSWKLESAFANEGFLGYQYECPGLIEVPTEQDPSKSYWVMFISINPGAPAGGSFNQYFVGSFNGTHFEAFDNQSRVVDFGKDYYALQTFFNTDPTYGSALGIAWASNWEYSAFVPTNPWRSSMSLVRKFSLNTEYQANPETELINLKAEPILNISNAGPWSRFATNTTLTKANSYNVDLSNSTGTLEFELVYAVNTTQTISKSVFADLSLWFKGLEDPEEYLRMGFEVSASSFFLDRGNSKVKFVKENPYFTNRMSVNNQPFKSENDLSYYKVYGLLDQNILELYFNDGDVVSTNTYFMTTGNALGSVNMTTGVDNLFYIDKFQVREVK
# T1 sequence (P23739 1-1013 limits assumed): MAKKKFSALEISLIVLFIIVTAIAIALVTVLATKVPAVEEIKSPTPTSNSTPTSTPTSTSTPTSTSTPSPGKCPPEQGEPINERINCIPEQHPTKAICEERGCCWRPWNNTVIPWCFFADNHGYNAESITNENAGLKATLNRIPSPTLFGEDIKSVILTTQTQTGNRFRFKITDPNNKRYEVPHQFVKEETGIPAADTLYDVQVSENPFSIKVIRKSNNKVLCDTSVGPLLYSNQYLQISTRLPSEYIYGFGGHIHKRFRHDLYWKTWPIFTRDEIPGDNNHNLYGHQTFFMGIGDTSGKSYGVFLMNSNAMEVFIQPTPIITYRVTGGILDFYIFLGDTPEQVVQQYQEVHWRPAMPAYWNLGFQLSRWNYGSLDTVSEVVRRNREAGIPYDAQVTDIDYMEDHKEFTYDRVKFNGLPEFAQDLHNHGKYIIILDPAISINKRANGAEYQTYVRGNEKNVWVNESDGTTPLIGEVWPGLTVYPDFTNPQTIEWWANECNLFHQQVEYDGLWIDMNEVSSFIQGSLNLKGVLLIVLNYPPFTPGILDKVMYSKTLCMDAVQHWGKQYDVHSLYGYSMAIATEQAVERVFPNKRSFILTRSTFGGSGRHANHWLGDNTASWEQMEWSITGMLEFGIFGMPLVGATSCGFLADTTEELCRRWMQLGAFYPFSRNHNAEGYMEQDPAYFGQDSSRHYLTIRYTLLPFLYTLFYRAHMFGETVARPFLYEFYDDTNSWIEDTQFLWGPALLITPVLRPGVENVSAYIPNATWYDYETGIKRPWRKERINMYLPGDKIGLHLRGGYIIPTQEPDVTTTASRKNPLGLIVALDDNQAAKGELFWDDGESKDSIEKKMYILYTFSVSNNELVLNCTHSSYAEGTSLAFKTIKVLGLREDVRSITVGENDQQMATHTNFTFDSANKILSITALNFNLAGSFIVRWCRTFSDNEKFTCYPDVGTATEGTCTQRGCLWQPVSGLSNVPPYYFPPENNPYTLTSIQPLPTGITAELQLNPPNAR
# T1 sequence (P23739 1014-1841 limits assumed): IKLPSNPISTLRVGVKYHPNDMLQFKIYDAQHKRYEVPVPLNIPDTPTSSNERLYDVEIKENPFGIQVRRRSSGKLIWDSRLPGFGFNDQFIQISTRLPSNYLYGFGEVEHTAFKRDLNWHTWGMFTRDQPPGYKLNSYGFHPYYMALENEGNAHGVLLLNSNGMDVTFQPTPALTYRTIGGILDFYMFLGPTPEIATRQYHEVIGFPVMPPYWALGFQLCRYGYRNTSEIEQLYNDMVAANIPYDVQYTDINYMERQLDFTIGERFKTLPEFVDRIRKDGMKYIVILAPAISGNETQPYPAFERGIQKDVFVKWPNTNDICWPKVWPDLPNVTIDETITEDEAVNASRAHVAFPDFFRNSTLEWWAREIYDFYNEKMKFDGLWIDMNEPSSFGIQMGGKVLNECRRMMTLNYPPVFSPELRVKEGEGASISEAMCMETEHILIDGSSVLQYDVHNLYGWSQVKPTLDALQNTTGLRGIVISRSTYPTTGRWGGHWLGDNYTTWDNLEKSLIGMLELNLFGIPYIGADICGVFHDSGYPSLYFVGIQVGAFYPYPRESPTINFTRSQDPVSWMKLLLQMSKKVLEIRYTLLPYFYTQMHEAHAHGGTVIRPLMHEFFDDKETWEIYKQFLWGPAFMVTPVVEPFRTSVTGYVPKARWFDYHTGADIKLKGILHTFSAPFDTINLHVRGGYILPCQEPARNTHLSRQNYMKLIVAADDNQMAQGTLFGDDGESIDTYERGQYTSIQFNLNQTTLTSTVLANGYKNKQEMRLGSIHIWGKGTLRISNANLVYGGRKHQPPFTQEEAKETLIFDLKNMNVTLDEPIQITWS
# T2 sequence (P23739 1-1013 limits assumed): as the sequence (P23739 1-1013 limits assumed) above
# T2 sequence (P23739 1014-1841 limits assumed): as the sequence (P23739 1014-1841 limits assumed) above
smiles,measurement,setting,value
"OCC1OC(CO)(OCC2OC(O)C(O)C(O)C2O)C(O)C1O (centres unmarked) [compound (I), Maplebiose]",Peak response (Glc),invertase; 1 μg inhibitor,18.2
same,Peak response (Glc),invertase; 10 μg inhibitor,17.2
same,Peak response (Glc),invertase; 100 μg inhibitor,23.1
same,changes with time of insulin,[1],similar
same,plasma glucose value relative to rats not administered with the compound (I),[1],about 50%
same,Inhibition rate,[2],12.3%
same,Inhibition (%),[3]; 1 μg inhibitor,39.1%
same,Inhibition (%),[3]; 10 μg inhibitor,49.4%
same,Inhibition (%),[3]; 100 μg inhibitor,54.2%
same,IC50,[3]; calculated using a straight line from concentrations and inhibition rates,1720 µM
same,Inhibition rate,[4],3.3%
same,Inhibition rate,[5],9.4%
same,changes with time of insulin,[6],similar
same,plasma glucose value vs rats not administered with the compound (I),[6],significantly lower
